{"source": "paper PMC6547681", "about": "(Nature Communications, 2019)", "test_system": "BCL-2 WT", "test": "Steady-state competition SPR against immobilised BIMBH3 peptide, BCL-2 WT", "assay_type": "binding, human", "details": "for Ki: BCL-2 WT", "experimental": "SPR experiments were performed as previously described. […] The lowest concentrations used in direct binding experiments were 1 nM for BIAcore 4000 and 0.1 nM for BIAcore S200 instruments, concentrations below these were below the sensitivity thresholds for the instruments. […] Direct binding experiments were fitted to a 1:1 binding site kinetic model, fitting on and off rates, in BIAevaluation software. For competition experiments steady-state responses were determined in BIAevaluation software according to the software defaults in affinity evaluation mode averaging responses for 5 sec. […] All affinity measurements were performed in at least two independent experiments using independent protein preparations.", "note": "“And” between values parts separate entries of the source, which are not always exact repeats. Equal values may be shown once. Read-outs that look alike come from different tables or passages of the source."}
{"smiles": "O=C(c1cc(-c2cc3c(cc2C(=O)N2Cc4ccccc4C[C@H]2CN2CCOCC2)OCO3)n2c1CCCC2)N(c1ccccc1)c1ccc(O)cc1", "note": "[S55746]", "values": [{"measurement": "Raw data values in Figure 3f (SPR response)", "setting": "S55746 concentration 40, BCL-2 concentration 40 nM, independent experiment 2", "result": 135.922}, {"measurement": "Raw data values in Figure 3f (SPR response)", "setting": "S55746 concentration 40, BCL-2 concentration 40 nM, independent experiment 3", "result": 43.3243}, {"measurement": "Raw data values in Figure 3f (SPR response)", "setting": "S55746 concentration 40, BCL-2 concentration 50 nM, independent experiment 1", "result": 78.7968}, {"measurement": "Raw data values in Figure 3f (SPR response)", "setting": "S55746 concentration 40, BCL-2 concentration 50 nM, independent experiment 3", "result": 49.1674}, {"measurement": "Raw data values in Figure 3f (SPR response)", "setting": "S55746 concentration 40, BCL-2 concentration 60 nM, independent experiment 1", "result": 84.5822}, {"measurement": "Raw data values in Figure 3f (SPR response)", "setting": "S55746 concentration 40, BCL-2 concentration 60 nM, independent experiment 3", "result": 58.6901}, {"measurement": "Raw data values in Figure 3f (SPR response)", "setting": "S55746 concentration 40, BCL-2 concentration 70 nM, independent experiment 1", "result": 88.5391}, {"measurement": "Raw data values in Figure 3f (SPR response)", "setting": "S55746 concentration 40, BCL-2 concentration 70 nM, independent experiment 3", "result": 64.9952}, {"measurement": "Raw data values in Figure 3f (SPR response)", "setting": "S55746 concentration 40, BCL-2 concentration 80 nM, independent experiment 1", "result": 89.9035}, {"measurement": "Raw data values in Figure 3f (SPR response)", "setting": "S55746 concentration 40, BCL-2 concentration 80 nM, independent experiment 3", "result": 69.0967}, {"measurement": "Raw data values in Figure 3f (SPR response)", "setting": "S55746 concentration 40, BCL-2 concentration 100 nM, independent experiment 1", "result": 92.2307}, {"measurement": "Raw data values in Figure 3f (SPR response)", "setting": "S55746 concentration 40, BCL-2 concentration 100 nM, independent experiment 3", "result": 75.0006}, {"measurement": "Raw data values in Figure 3f (SPR response)", "setting": "S55746 concentration 40, BCL-2 concentration 150 nM, independent experiment 1", "result": 94.9838}, {"measurement": "Raw data values in Figure 3f (SPR response)", "setting": "S55746 concentration 40, BCL-2 concentration 150 nM, independent experiment 3", "result": 84.1638}, {"measurement": "Raw data values in Figure 3f (SPR response)", "setting": "S55746 concentration 40, BCL-2 concentration 200 nM, independent experiment 1", "result": 96.8989}, {"measurement": "Raw data values in Figure 3f (SPR response)", "setting": "S55746 concentration 40, BCL-2 concentration 200 nM, independent experiment 3", "result": 89.8321}, {"measurement": "Raw data values in Figure 3f (SPR response)", "setting": "S55746 concentration 60, BCL-2 concentration 10 nM, independent experiment 1", "result": 3.3753}, {"measurement": "Raw data values in Figure 3f (SPR response)", "setting": "S55746 concentration 60, BCL-2 concentration 10 nM, independent experiment 3", "result": 1.1233}, {"measurement": "Raw data values in Figure 3f (SPR response)", "setting": "S55746 concentration 60, BCL-2 concentration 20 nM, independent experiment 1", "result": 7.929}, {"measurement": "Raw data values in Figure 3f (SPR response)", "setting": "S55746 concentration 60, BCL-2 concentration 20 nM, independent experiment 3", "result": 2.648}, {"measurement": "Raw data values in Figure 3f (SPR response)", "setting": "S55746 concentration 60, BCL-2 concentration 30 nM, independent experiment 1", "result": 13.853}, {"measurement": "Raw data values in Figure 3f (SPR response)", "setting": "S55746 concentration 60, BCL-2 concentration 30 nM, independent experiment 3", "result": 4.966}, {"measurement": "Raw data values in Figure 3f (SPR response)", "setting": "S55746 concentration 60, BCL-2 concentration 40 nM, independent experiment 1", "result": 26.5524}, {"measurement": "Raw data values in Figure 3f (SPR response)", "setting": "S55746 concentration 60, BCL-2 concentration 40 nM, independent experiment 3", "result": 9.938}, {"measurement": "Raw data values in Figure 3f (SPR response)", "setting": "S55746 concentration 60, BCL-2 concentration 50 nM, independent experiment 1", "result": 51.4643}, {"measurement": "Raw data values in Figure 3f (SPR response)", "setting": "S55746 concentration 60, BCL-2 concentration 50 nM, independent experiment 3", "result": 23.6574}, {"measurement": "Raw data values in Figure 3f (SPR response)", "setting": "S55746 concentration 60, BCL-2 concentration 60 nM, independent experiment 1", "result": 75.6075}, {"measurement": "Raw data values in Figure 3f (SPR response)", "setting": "S55746 concentration 60, BCL-2 concentration 60 nM, independent experiment 3", "result": 44.7291}, {"measurement": "Raw data values in Figure 3f (SPR response)", "setting": "S55746 concentration 60, BCL-2 concentration 70 nM, independent experiment 1", "result": 83.0032}, {"measurement": "Raw data values in Figure 3f (SPR response)", "setting": "S55746 concentration 60, BCL-2 concentration 70 nM, independent experiment 3", "result": 55.5781}, {"measurement": "Raw data values in Figure 3f (SPR response)", "setting": "S55746 concentration 60, BCL-2 concentration 80 nM, independent experiment 1", "result": 87.1926}, {"measurement": "Raw data values in Figure 3f (SPR response)", "setting": "S55746 concentration 60, BCL-2 concentration 80 nM, independent experiment 3", "result": 62.5167}, {"measurement": "Raw data values in Figure 3f (SPR response)", "setting": "S55746 concentration 60, BCL-2 concentration 100 nM, independent experiment 1", "result": 90.81}, {"measurement": "Raw data values in Figure 3f (SPR response)", "setting": "S55746 concentration 60, BCL-2 concentration 100 nM, independent experiment 3", "result": 70.2062}, {"measurement": "Raw data values in Figure 3f (SPR response)", "setting": "S55746 concentration 60, BCL-2 concentration 150 nM, independent experiment 1", "result": 94.4799}, {"measurement": "Raw data values in Figure 3f (SPR response)", "setting": "S55746 concentration 60, BCL-2 concentration 150 nM, independent experiment 3", "result": 81.267}, {"measurement": "Raw data values in Figure 3f (SPR response)", "setting": "S55746 concentration 60, BCL-2 concentration 200 nM, independent experiment 1", "result": 96.2757}, {"measurement": "Raw data values in Figure 3f (SPR response)", "setting": "S55746 concentration 60, BCL-2 concentration 200 nM, independent experiment 3", "result": 87.9958}, {"measurement": "Raw data values in Figure 3f (SPR response)", "setting": "S55746 concentration 80, BCL-2 concentration 1 nM, independent experiment 2", "result": 1.2215}, {"measurement": "Raw data values in Figure 3f (SPR response)", "setting": "S55746 concentration 80, BCL-2 concentration 3 nM, independent experiment 2", "result": 2.493}, {"measurement": "Raw data values in Figure 3f (SPR response)", "setting": "S55746 concentration 80, BCL-2 concentration 4 nM, independent experiment 2", "result": 3.639}, {"measurement": "Raw data values in Figure 3f (SPR response)", "setting": "S55746 concentration 80, BCL-2 concentration 6 nM, independent experiment 2", "result": 4.673}, {"measurement": "Raw data values in Figure 3f (SPR response)", "setting": "S55746 concentration 80, BCL-2 concentration 8 nM, independent experiment 2", "result": 5.6951}, {"measurement": "Raw data values in Figure 3f (SPR response)", "setting": "S55746 concentration 80, BCL-2 concentration 9 nM, independent experiment 2", "result": 6.782}, {"measurement": "Raw data values in Figure 3f (SPR response)", "setting": "S55746 concentration 80, BCL-2 concentration 11 nM, independent experiment 2", "result": 7.791}, {"measurement": "Raw data values in Figure 3f (SPR response)", "setting": "S55746 concentration 80, BCL-2 concentration 12 nM, independent experiment 2", "result": 8.945}, {"measurement": "Raw data values in Figure 3f (SPR response)", "setting": "S55746 concentration 80, BCL-2 concentration 16 nM, independent experiment 2", "result": 11.2715}, {"measurement": "Raw data values in Figure 3f (SPR response)", "setting": "S55746 concentration 80, BCL-2 concentration 24 nM, independent experiment 2", "result": 17.5573}, {"measurement": "Raw data values in Figure 3f (SPR response)", "setting": "S55746 concentration 80, BCL-2 concentration 40 nM, independent experiment 2", "result": 30.3087}, {"measurement": "Ki", "setting": "read-out: S55746 KI (mean), competition vs BIMBH3 SPR surface, mean ± SD, n ≥ 2", "result": "0.36 nM and 0.356 nM"}, {"measurement": "Ki", "setting": "read-out: S55746 KI, single independent experiments, independent experiments 1-3", "result": "0.358 nM and 0.372 nM and 0.338 nM"}]}
